Measurements published in US4496655A, “Process for the production of tyramine oxidase” (Toyo Jozo Kabushiki Kaisha, priority 1981, dated 1985).
Where two headings read alike, the source gives them in different places.

Tests used:
[1] = system: tyramine oxidase; experiment: Effect of various substances on the activity of tyramine oxidase; format: biochemical, Arthrobacter sp. B-0813
Method: (§1) An enzyme solution (0.05 ml) is added to a reaction mixture (0.5 ml) consisting of the following, and the volume is increased to 1.0 ml by adding water and the mixture is incubated at 37° C. for 10 minutes.
(§2) Water (0.1 ml) is added in place of enzyme solution as a control. The reaction mixture is measured at 490 nm.
(§3) Enzyme activity is calculated by the following equation: [formula] wherein Δ490 nm is the absorption value at Δ490 nm for 10 minutes, and f is the dilution ratio.

[2] = system: tyramine oxidase; experiment: Substrate specificity of tyramine oxidase; format: biochemical, Arthrobacter sp. B-0813; parameters: Relative activity (%) as substrate: concentration or dose not given beside the values; settings: for Relative activity (%) as substrate: substrate added to the reaction mixture, tyramine = 100.0
Method: as §1, §2, §3
Substrate specificity was measured by adding various substrates to the reaction mixture.

[3] = system: Arthrobacter sp. B-0813 FERM-P No. 6240; format: cell-based; settings: arthrobacter culture
Method: A medium (100 ml, pH 7.5) comprising by weight soybean oil 0.8%, corn steep liquor 1.0%, meat extract 0.1%, polypeptone 1.0%, NaCl 0.3% and β-phenylethylamine 0.15% was put into a 500 ml Erlenmeyer flask and sterilized at 120° C. for 20 minutes. Arthrobacter sp. B-0813 FERM-P No. 6240 was inoculated into the medium and the mixture was cultured at 30° C. for 20 hours to prepare a seed culture. The medium containing the same components (20 lit.) together with added 0.2% of antifoam agent (silicone AF-145), (Asahi Chem.) was poured into a 30 lit. jar fermenter and the above two flasks of seed culture were inoculated therein, then the medium was aerobically cultured with agitation at 250 rpm and with 20 lit./min. aeration for 20 hours. The tyramine oxidase activity of the cultured broth was 1.3 U/ml.
When tyramine or butylamine was added to the medium, a more than 200-fold increase in the yield of enzyme was observed as compared with no addition of these amines. The amount of such addition is 0.1-0.2%, preferably 0.15%. The culturing temperature is generally 25°-35° C. and the culturing time is 10-30 hours.

[4] = system: tyramine oxidase; experiment: Km-value of tyramine oxidase; format: biochemical, Arthrobacter sp. B-0813; settings: substrate tyramine
Method: as §1

[5] = amount added 5 mM, control (no addition) = 100.0
[6] = amount added 0.025 mM, control (no addition) = 100.0

With `[Ba+2].[Cl-].[Cl-]` [BaCl2] as the molecule, how does the “Relative Activity (%)” value [1, 5] read?
The value was 96.6%.

How did the “Relative activity (%) as substrate” value [2] turn out when `NCc1ccccc1` [Benzylamine] was run?
The value was 0.0%.

For `[Ca+2].[Cl-].[Cl-]` [CaCl2], which “Relative Activity (%)” value [1, 5] is on record?
The value was 86.2%.

For `CCCCCCCCCCCCCCCC[N+](C)(C)C.[Cl-]` [Cetyltrimethylammonium chloride], which “Relative Activity (%)” value [1, 6] is on record?
The value was 0.0%.

For `[Cl-].[Cl-].[Co+2]` [CoCl2], which “Relative Activity (%)” value [1, 5] is on record?
Its value is 86.2%.

For `O=C(O)CN(CCN(CC(=O)O)CC(=O)O)CC(=O)O` [EDTA], which “Relative Activity (%)” value [1] is on record?
Its value is 100.0%.

`CCN` [Ethylamine] was tested. Which “Relative activity (%) as substrate” value [2] did it give?
Its value is 0.0%.

For `Cc1cc2nc3c(=O)[nH]c(=O)nc-3n(C[C@H](O)[C@H](O)[C@H](O)COP(=O)(O)OP(=O)(O)OC[C@H]3O[C@@H](n4cnc5c(N)ncnc54)[C@H](O)[C@@H]3O)c2cc1C` [FAD], which “Relative Activity (%)” value ([1]; amount added 0.1 mM, control (no addition) = 100.0) is on record?
Its value is 75.4%.

With `Cc1cc2nc3c(=O)[nH]c(=O)nc-3n(C[C@H](O)[C@H](O)[C@H](O)COP(=O)(O)O)c2cc1C` [FMN, flavin mononucleotide] as the molecule, how does the “Effect of addition on the activity of the enzyme (in words)” value [1] read?
Its value is “increases the activity”.

What about the “Relative Activity (%)” value ([1]; amount added 0.01 mM, control (no addition) = 100.0) of the same molecule?
The value was 108.8%.

Which “Relative Activity (%)” value [1, 5] does the source give for `[Cl-].[Li+]` [LiCl] here?
The value was 82.8%.

Which “Relative activity (%) as substrate” value [2] does the source give for `CN` [Methylamine] here?
The value was 0.0%.

With `[Cl][Mn][Cl]` [MnCl2] as the molecule, how does the “Relative Activity (%)” value [1, 5] read?
Its value is 82.8%.

With `Cl.N` [NH4 Cl] as the molecule, how does the “Relative Activity (%)” value [1, 5] read?
The value was 96.6%.

With `[Na+].[Na+].[O]=[Mo](=[O])([O-])[O-]` [NaMoO4] as the molecule, how does the “Relative Activity (%)” value [1, 5] read?
The value was 39.7%.

For `[N-]=[N+]=[N-].[Na+]` [NaN3], which “Relative Activity (%)” value [1, 5] is on record?
The value was 98.3%.

`NCCc1ccc(O)cc1` [Tyramine, p-hydroxyphenylethylamine] was tested. Which “Increase in the yield of enzyme compared with no addition of these amines” value [3] did it give?
Its value is “more than 200 fold”.

And the Km [4]?
Its Km is 27 µM.

What about the “Activity of the enzyme on the substrate (in words)” value [2] of the same molecule?
Its value is “specific activity”.

What about the “Relative activity (%) as substrate” value [2] of the same molecule?
Its value is 100.0%.

What does the source list for `CCCCN` [n-butylamine]?
Increase in the yield of enzyme compared with no addition of these amines [3]: more than 200 fold; Activity of the enzyme on the substrate (in words) [2]: activity; Relative activity (%) as substrate [2]: 45.3%

For `O=C(O)c1cc[c]([Hg][Cl])cc1` [p-chloromercuribenzoate (PCMB), p-chloromercuribenzoate], which “Relative Activity (%)” value ([1]; amount added 0.2 mM, control (no addition) = 100.0) is on record?
Its value is 79.3%.

`NCCc1ccc(Cl)cc1` [p-chlorophenylethylamine] was tested. Which “Activity of the enzyme on the substrate (in words)” value [2] did it give?
The value was “activity”.

And the “Relative activity (%) as substrate” value [2]?
The value was 47.9%.

Which “Activity of the enzyme on the substrate (in words)” value [2] does the source give for `NCCc1ccccc1` [β-phenylethylamine] here?
The value was “activity”.

What about the “Relative activity (%) as substrate” value [2] of the same molecule?
The value was 54.7%.

For “Laurylbenzene sulfonate [Laurylbenzene sulfonate (LBS)]”, which “Relative Activity (%)” value ([1]; amount added 0.05 mM, control (no addition) = 100.0) is on record?
Its value is 63.9%.

For Triton X-100, which “Relative Activity (%)” value [1, 6] is on record?
Its value is 96.7%.
